Experiments:
[1] = target: T1, L-Selectin (Homo sapiens, UniProt P14151); assay: ELISA inhibition of recombinant L-selectin binding to immobilized SLe^x; details: mean of 3 determinations, read-out: IC50 Values Against SLe^x, L-Selectin
T1 sequence (P14151 39-372): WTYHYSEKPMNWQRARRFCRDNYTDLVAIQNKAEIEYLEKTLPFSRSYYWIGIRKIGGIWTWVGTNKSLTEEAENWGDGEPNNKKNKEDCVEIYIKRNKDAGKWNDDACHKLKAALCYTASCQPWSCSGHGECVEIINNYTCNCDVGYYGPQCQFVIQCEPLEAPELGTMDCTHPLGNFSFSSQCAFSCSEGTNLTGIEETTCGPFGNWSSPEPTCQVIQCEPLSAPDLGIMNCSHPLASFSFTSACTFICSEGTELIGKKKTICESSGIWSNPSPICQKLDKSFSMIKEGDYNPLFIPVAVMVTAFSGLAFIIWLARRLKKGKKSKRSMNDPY
Procedure: (§1) Relative Inhibitory Properties of Branched Chains Including Neu5Ac and/or GalNAcLe^x Against Recombinant Selectins Binding to Immobilized SLe^x
(§2) ELISA inhibition studies were done as previously reported conditions. Ic50 values against immobilized SLe^x are the mean values of 3 determinations and were calculated according to published methodology.

[2] = target: T2, E-Selectin (Homo sapiens, UniProt P16581); assay: ELISA inhibition of recombinant E-selectin binding to immobilized SLe^x; details: mean of 3 determinations, read-out: IC50 Values Against SLe^x, E-Selectin
T2 sequence (P16581 22-610): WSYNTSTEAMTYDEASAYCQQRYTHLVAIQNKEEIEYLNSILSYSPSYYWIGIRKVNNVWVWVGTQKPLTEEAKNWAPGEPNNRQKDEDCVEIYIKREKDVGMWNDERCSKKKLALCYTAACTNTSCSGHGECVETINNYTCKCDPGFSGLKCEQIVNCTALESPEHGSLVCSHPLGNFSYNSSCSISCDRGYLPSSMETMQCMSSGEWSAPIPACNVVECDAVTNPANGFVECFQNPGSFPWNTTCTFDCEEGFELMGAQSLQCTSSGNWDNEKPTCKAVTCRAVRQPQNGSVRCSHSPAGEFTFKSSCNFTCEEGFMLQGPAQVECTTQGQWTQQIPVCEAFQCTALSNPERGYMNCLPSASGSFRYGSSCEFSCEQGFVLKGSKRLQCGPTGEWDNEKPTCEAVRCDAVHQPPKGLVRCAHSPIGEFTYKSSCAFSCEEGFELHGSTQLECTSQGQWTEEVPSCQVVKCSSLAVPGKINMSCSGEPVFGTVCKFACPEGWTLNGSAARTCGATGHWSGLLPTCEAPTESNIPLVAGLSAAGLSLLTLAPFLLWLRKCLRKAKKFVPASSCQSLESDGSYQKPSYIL
Procedure: as §1, §2

[3] = target: T3, P-Selectin (Homo sapiens, UniProt P16109); assay: ELISA inhibition of recombinant P-selectin binding to immobilized SLe^x; details: for IC50: recombinant selectin, immobilized SLe^x, ELISA, mean of 3 determinations, read-out: IC50 Values Against SLe^x, P-Selectin
T3 sequence (P16109 42-830): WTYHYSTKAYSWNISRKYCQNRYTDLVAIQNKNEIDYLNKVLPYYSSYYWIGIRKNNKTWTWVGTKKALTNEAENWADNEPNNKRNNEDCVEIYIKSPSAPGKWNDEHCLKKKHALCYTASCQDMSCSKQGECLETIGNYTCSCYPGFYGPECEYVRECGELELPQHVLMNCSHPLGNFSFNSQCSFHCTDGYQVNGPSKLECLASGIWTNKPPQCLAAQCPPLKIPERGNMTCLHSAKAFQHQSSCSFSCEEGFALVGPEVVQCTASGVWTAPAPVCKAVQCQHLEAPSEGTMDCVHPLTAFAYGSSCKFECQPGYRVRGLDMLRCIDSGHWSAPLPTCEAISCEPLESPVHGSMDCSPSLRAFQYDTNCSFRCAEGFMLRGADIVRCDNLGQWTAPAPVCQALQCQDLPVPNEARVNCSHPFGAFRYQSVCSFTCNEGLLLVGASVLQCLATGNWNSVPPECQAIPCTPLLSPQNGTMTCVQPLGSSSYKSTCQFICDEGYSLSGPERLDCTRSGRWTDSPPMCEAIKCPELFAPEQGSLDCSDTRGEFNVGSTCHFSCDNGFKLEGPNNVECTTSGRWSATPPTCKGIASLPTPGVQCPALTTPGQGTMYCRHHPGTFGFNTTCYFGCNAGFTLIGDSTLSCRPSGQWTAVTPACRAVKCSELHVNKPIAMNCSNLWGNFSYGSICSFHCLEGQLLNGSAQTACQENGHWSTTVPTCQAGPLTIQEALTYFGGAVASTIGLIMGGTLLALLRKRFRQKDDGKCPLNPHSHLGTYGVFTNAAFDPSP
Procedure: as §1, §2

[4] = target: T1, L-Selectin; details: cited from earlier work; for affinity for L-selectin: recent study / inhibition studies of Scudder et al.
[5] = target: T2, E-Selectin; details: isolated from human cell produced Protein C; cited from earlier work
[6] = target: T3, P-Selectin; assay: Other studies of binding (unspecified; P-selectin context); details: no details given

| Compound | IC50 [1] [µM] | IC50 [2] [µM] | IC50 [3] [µM] | further results |
| --- | --- | --- | --- | --- |
| CO[C@@H]1O[C@H](CO)[C@@H](O[C@@H]2O[C@H](CO)[C@H](O)[C@H](O)[C@H]2NC(C)=O)[C@H](O[C@@H]2O[C@@H](C)[C@@H](O)[C@@H](O)[C@@H]2O)[C@H]1NC(C)=O [Compound 8b] | 300 | > 500 | 400 |  |
| NeuAcα2→3Galβ1→4(Fucα1→3)SE-3GlcNAcβ1→3Gal |  |  |  | affinity for L-selectin [4]: lacked a high affinity |
| CO[C@H]1O[C@H](CO[C@@H]2O[C@H](CO)[C@@H](O[C@@H]3O[C@H](CO)[C@H](O)[C@H](O)[C@H]3NC(C)=O)[C@H](O[C@@H]3O[C@@H](C)[C@@H](O)[C@@H](O)[C@@H]3O)[C@H]2NC(C)=O)[C@H](O)[C@H](O[C@@H]2O[C@H](CO)[C@H](O)[C@H](O[C@]3(C(=O)O)C[C@H](O)[C@@H](NC(C)=O)[C@H]([C@H](O)[C@H](O)CO)O3)[C@H]2O)[C@H]1NC(C)=O [Compound 16] | 105 | > 500 | 85 |  |
| COC1O[C@H](CO)[C@@H](O[C@@H]2O[C@H](COS(=O)(=O)O)[C@H](O)[C@H](O[C@]3(C(=O)O)C[C@H](O)[C@@H](NC(C)=O)[C@H]([C@H](O)[C@H](O)CO)O3)[C@H]2O)[C@H](O[C@@H]2O[C@@H](C)[C@@H](O)[C@@H](O)[C@@H]2O)[C@H]1NC(C)=O (stereo partly shown) [NeuAcα2→3SE-6 Galβ1→4(Fucα1→3)GlcNAcOMe] |  |  |  | affinity for L-selectin [4]: lacked a high affinity; ligand quality for L-selectin ([4]; recent study): not a superior ligand |
| GalNAcβ1→4(Fucα1→3)GlcNAcβ1→Manα1→3/6Manβ1→4GlcNAcβ1→4GlcNAc |  |  |  | inhibition of E-selectin [5]: potent inhibitor |
| CO[C@H]1O[C@H](CO[C@@H]2O[C@H](CO)[C@@H](O[C@@H]3O[C@H](CO)[C@H](O)[C@H](O)[C@H]3NC(C)=O)[C@H](O[C@@H]3O[C@@H](C)[C@@H](O)[C@@H](O)[C@@H]3O)[C@H]2NC(C)=O)[C@H](O)[C@H](O[C@@H]2O[C@H](CO)[C@H](O)[C@H](OS(=O)(=O)O)[C@H]2O)[C@H]1NC(C)=O [Compound 19] | 500 | > 500 | > 500 | binding in other studies [6]: even greater binding; binding ability relative to sialyl Lewis^x for P-selectin ([3]; compared with sialyl Lewis^x): about six |
| sialyl Lewis^x [reference compound] | 600 |  |  |  |
| CO[C@H]1O[C@H](CO[C@@H]2O[C@H](CO)[C@@H](O[C@@H]3O[C@H](CO)[C@H](O)[C@H](O)[C@H]3NC(C)=O)[C@H](O[C@@H]3O[C@@H](C)[C@@H](O)[C@@H](O)[C@@H]3O)[C@H]2NC(C)=O)[C@H](O)[C@H](O[C@@H]2O[C@H](CO)[C@H](O)[C@H](O)[C@H]2O)[C@H]1NC(C)=O [Compound 14, Methyl O-(2-acetamido-2-deoxy-β-D-galactopyranosyl)-(1→4)-O-[(α-L-fucopyranosyl)-(1→3)-O]-(2-acetamido-2-deoxy-β-D-glucopyranosyl)-(1→6)-O-[(β-D-galactopyranosyl)-(1→3)-O]-2-acetamido-2-deoxy-α-D-galactopyranoside] | 300 | > 500 | 400 |  |

Reference: US5972907A, “Synthetic core 2-like branched structures containing GalNAc-lewis^x and Neu5Acα2-3Galβ1-3GalNAc sequences as novel ligands for selectins” (Health Research, Inc., priority 1997, dated 1999)
